This is an account of results in patent publication US11939377B2, “Affinity matured CD22-specific monoclonal antibody and uses thereof” (The U.S.A., as represented by the Secretary, Department of …, priority 2018, dated 2024).

Assay [1] deals with CD22 expression on ALL and DLBCL cell lines (Nalm6, Kopn8, SEM, Pfeiffer, Toledo, PDX). Put plainly: CD22 expression on leukemia/lymphoma cells by flow cytometry after drug exposure in vitro. It counts as cell-based, human. On the procedure: (§1) FIGS. 3A-3D: (FIG. 3A) Four cell lines (Nalm6, Kopn8, Pfieffer and Toldeo) were co-incubated with 1 ng/ml Bryostatin 1 for 24 hours and analyzed using flow cytometry one day after Bryostatin 1 exposure. Site density was analyzed using standardized Quantibrite-PE beads. (FIG. 3B) Cell lines were co-incubated with 1 ng/ml Bryostatin 1 for 24 hours, washed, and analyzed using flow cytometry at 1 and 7 days after Bryostatin 1 exposure. Fold change was calculated based on site density: (Cell line Bryostatin 1—Cell line DMSO)/Cell line DMSO. (FIG. 3C) NSG mice were injected with 1×10^6 GPF-positive Nalm6 leukemia cells on Day 0. Bryostatin 1 was administered at 0.8 μg/kg on Day 3. Mice were sacrificed 7 and 12 days after Bryostatin 1 injection and CD22 was evaluated by flow cytometry. (FIG. 3D) CD22-low relapse PDX cell line was cultured in vitro with 1 nmol/L Bryostatin 1 for 24 hours and measured for CD22 expression using CD22 antibody.
FIGS. 10A-10E: (FIG. 10A) Three cell lines (Toldeo, Kopn8 and Nalm6) were co-incubated with Bryostatin 1 at varying concentrations for 24 hours. At 24 hours, cells were collected for protein kinase C (PKC)-βII isoform analysis by western blot. (FIG. 10B) KOPN8 or SEM cell lines were exposed to Bryostatin 1 for 16, 24, 48 or 72 hours. RNA was extracted from cells and analyzed using RNAseq. (FIG. 10C) Immunofluorescent staining of CD22 was conducted through permeabilization followed by staining of CD22. (FIG. 10D) Four cell lines were co-incubated with various combinations of Enzastaurin (10 μM), Staurosporine (100 μM), or Bryostatin 1 (1 nM) for 24 hours. CD22 expression was assessed using flow cytometry. MFI fold change=CD22 MFI^Bryostatin1/CD22 MFI^DMSO. (FIG. 10E) Cell lines were co-incubated with 1 nM Bryostatin 1 for 24 hours and measured for CD22 expression using CD22-PE antibody. MFI fold change=CD22 MFI^Bryostatin 1/CD22 MFI^DMSO.
FIG. 11: CD22^lo or parental Nalm6 cell lines were exposed to 1 ng/ml Bryostatin 1 for 24 hours. CD22 expression was assessed using flow cytometry.
For all in vitro experiments and tumor/CAR pretreatment prior to intravenous injection, Bryostatin 1 was administered to cells at a concentration of 1 ng/mL. Dimethyl sulfoxide (DMSO) vehicle control was administered to control-treated cells at an equal volume. Prior to co-culture or intravenous injection, Bryostatin 1- and DMSO-treated cells were washed 3x in sterile PBS. For all in vivo experiments, Bryostatin 1 was diluted in PBS and administered via intraperitoneal injection at a dose of 40 μg/kg (1 μg/25 g mouse). For control-treated groups, an equal volume of DMSO was diluted in PBS and administered in the same manner
FACS analysis of cell surface CAR and protein expression was performed using an LSR II Fortessa flow cytometer (BD Biosciences). CD22-CAR was detected by incubation with 22-Fc (R&D Systems), followed by incubation with human IgG-specific PE-F(ab)2 (Thermo Fisher Scientific). The following human monoclonal antibodies were used for detection of cell surface proteins: CD22-APC, CD22-PE, CD19-Pacific Blue, CD45-PerCP/Cy5.5, CD3-APC/Cy7, PD1-PE/Cy7, LAG3-APC, TIM3-Pacific Blue, CD8-APC, CD8-PE/Cy7, CD45RA-APC, CD45RO-PE/Cy7, CCR7-Pacific Blue, CD4-Pacific Blue, CD69-APC (all from BioLegend). CD22 site density was determined using QuantiBrite-PE beads (BD Biosciences) using methods previously described (Jasper et al., Cytometry B Clin Cytom 80(2):83-90, 2011). Dead cells were identified using eFluor 506 fixable viability dye (Thermo Fisher Scientific). GFP-expressing leukemia cells were identified through the FITC channel.
(Flow cytometry measures light scatter and fluorescence of single cells or particles in a stream.)

Assay [2] relates to CD19 expression on ALL and DLBCL cell lines. Put plainly: CD19 expression on cell lines by flow cytometry after Bryostatin 1 exposure. The format is cell-based, human. The settings on record: 1 ng/ml, 24 hours. As for the experimental part:
as §1, with “antibody. […]” for “antibody.”
(§2) FACS analysis of cell surface CAR and protein expression was performed using an LSR II Fortessa flow cytometer (BD Biosciences). CD22-CAR was detected by incubation with 22-Fc (R&D Systems), followed by incubation with human IgG-specific PE-F(ab)2 (Thermo Fisher Scientific). […] CD22 site density was determined using QuantiBrite-PE beads (BD Biosciences) using methods previously described (Jasper et al., Cytometry B Clin Cytom 80(2):83-90, 2011). […]

The test system of assay [3] is Nalm6 leukemia cells. Put plainly: CD22 expression on Nalm6 in NSG mice after a single dose of Bryostatin 1. It counts as in vivo. The settings on record: single dose I.P. As for the experimental part: as §1, with “antibody. […]” for “antibody.”
as §2

Assay [4] has as its system KOPN8 and SEM cell lines. The assay can be described thus: RNA sequencing of Bryostatin 1-treated ALL cell lines. It counts as cell-based, human. On the procedure:
FIGS. 4A-4E: (FIGS. 4A-4B) KOPN8 or SEM cell lines were exposed to Bryostatin 1 for 16, 24, 48, or 72 hours. RNA was extracted from cells and analyzed using RNAseq. (FIGS. 4C-4E) Cell lines were co-incubated with 1 ng/ml of Bryostatin 1 for 24 hours. […] IL-2 (FIG. 4C), IFN-γ (FIG. 4D), and granzyme B (FIG. 4E) were measured by ELISA from cell culture supernatants. Statistical significance was calculated using an unpaired t-test (**** p<0.0001, *** p<0.0002, ** p<0.0021, * p<0.0332).
Sixteen RNA-seq samples were pooled and sequenced on one NextSeq high output run using Illumina TruSeq Poly A RNA Kit v3 with paired end sequencing. All samples had greater than 30 million pass filter reads with a base call quality above 95% of bases with Q30 and above. Reads of the samples were trimmed for adapters and low-quality bases using Trimmomatic software before alignment with the reference genome Human—hg19 and the annotated transcripts using STAR. The mapping quality statistics were calculated using Picard software and library complexity was measured in terms of unique fragments in the mapped reads using Picard's MarkDuplicate utility. The Partek Flow informatics pipeline was used to generate fold change and differentially expressed gene data as well as for data visualization. Gene set enrichment analysis (GSEA) of the differentially expressed genes was performed as previously described and using standard parameters.

For assay [5], the system named is Nalm6, Nalm6 CRISPR variant, SEM or PDX leukemia. The assay can be described thus: Nalm6 / SEM xenograft and PDX in vivo studies (IVIS luminescence). Further details: species or system NSG mice.
In assay [6] the test system is CD22 expression on ALL and DLBCL cell lines (Nalm6, Kopn8, SEM, Pfeiffer, Toledo, PDX). The conditions noted are these: Biberacher et al. 2012; cited from earlier work.

Regarding `CCC/C=C/C=C/C(=O)O[C@H]1/C(=C/C(=O)OC)C[C@H]2C[C@H]([C@@H](C)O)OC(=O)C[C@H](O)C[C@@H]3C[C@H](OC(C)=O)C(C)(C)[C@](O)(C[C@@H]4C/C(=C/C(=O)OC)C[C@H](/C=C/C(C)(C)[C@]1(O)O2)O4)O3` [Bryostatin 1], the “persistence of increased CD22 expression following removal of drug” value in assay [1] (24 hours exposure, washed, analyzed at 1 and 7 days) is “persisted for a week”. Moreover, in assay [1] (CD22^lo Nalm6, 1 ng/ml, 24 hours), the “CD22 expression on CD22^lo leukemia cells following exposure” value is “did not demonstrate an increase”. Moreover, the “CD22 expression (MFI fold change)” value in assay [1] (KOPN8 and SEM, 1 nM, 24 hours) is listed as “robust upregulation”. Also, the “CD22 on CD22-low relapse patient-derived ALL xenograft” value in assay [1] (PDX cell line cultured in vitro, 1 nmol/L, 24 hours) is “upregulated”. In addition, in assay [1] (all four cell lines (two pre-B ALL, two DLBCL), 1 ng/ml, 24 hours), the “CD22 expression upon exposure” value is “significant increase”. Moreover, in assay [2], the “CD19 expression on ALL” value is “did not alter” and the “CD19 expression on DLBCL” value was “modest increase”. Moreover, the “CD22 MFI on Nalm6 in vivo” value in assay [3] (1 week) was “increased”. For the same molecule, the “CD22 expression on Nalm6 in vivo” value in assay [3] (12 days post-drug administration) is on record as “return to baseline expression”. Moreover, the “genes with 2-fold increased expression versus control” value in assay [4] (KOPN8) was found to be 756 genes. Besides, in assay [4] (KOPN8, 24 hours), the “genes with a greater than 2-fold change” value stood at 1524 genes. Besides, the “CD22 mRNA over the course of treatment” value in assay [4] (KOPN8 and SEM, 16, 24, 48, 72 hours) is “Neither cell line showed changes”. For the same molecule, the “genes with a 2-fold change” value in assay [4] (SEM) is given as “only one gene”. In addition, the “durability of remission after subcurative dose of CD22 CART” value in assay [5] (Nalm6 and SEM, 40 μg/kg once weekly for 2 weeks) was “improved durability of remission”. The “efficacy of the CD19 CAR in vivo” value in assay [5] (SEM, 40 μg/kg once weekly for 2 weeks) was “did not reduce efficacy”. Further, in assay [5] (once weekly for 2 weeks after CD22 CART), the “ability of CD22-CAR to attenuate progression of CD22^lo leukemia in vivo” value is recorded as “did not impact”. In addition, the “CD22 expression on chronic lymphocytic leukemia (CLL)” value in assay [6] is “increase CD22 expression”.
